Earlier results on one compound are cited in publication PMC7468272 (Acta Pharmacologica Sinica, 2019).

This series relates to CBP/p300.

Consider `CO[C@H]1CC[C@H](n2c([C@@H]3CCCC(=O)N3c3ccc(F)c(F)c3)nc3cc(-c4c(C)noc4C)ccc32)CC1` [CCS1477], for which the “affinity for CBP/p300” value is on record as “single-digit nanomolar affinity”.
